Assay results as given in US20140343085A1, “USE OF ARYL DERIVATIVES FOR CONTROLLING ECTOPARASITES” (Novartis AG, priority 2011, published 2014).

How the values were obtained:
[1] = Blood concentration of active enantiomer in dogs, fed vs fasted (HPLC-MSMS, enantioselective column); format: in vivo; details: 50 mg/kg
Method: To 12 dogs of mixed breed, the racemic compound 5-[5-(3,4,5-trichloro-phenyl)-5-trifluoromethyl-4,5-dihydro-isoxazol-3-yl]-3-methyl-thiophene-2-carboxylic acid [(2,2,2-trifluoro-ethylcarbamoyl)-methyl]-amide was administered in form of a solution at a dose of 50 mg/kg of animal, and the blood concentration of said aryl isoxazoline compound within the dogs was then monitored up to 6 days following the administration.
4 dogs (Group 1) received a full daily ration of pelleted dry food 15 to 30 minutes before the administration of the aryl isoxazoline compound; The Group 2 dogs received an identical ration of pelleted dry feed 30 minutes after the administration of the active ingredient. To the remaining 4 dogs of Group 3, the aryl isoxazoline compound was administered in fasted condition, and they received the identical ration of pelleted dry food only 5 hours following the uptake of the antiparasiticide.
(§1) Analysis of the blood concentration was performed as follows. A blood sample from the animal was subjected to a precipitation step with organic solvent and subsequently cleaned up on a […] solid phase extraction cartridge. The eluate was evaporated to dryness and reconstituted in mobile phase and analyzed on a HPLC-MSMS using an enantioselective column (amylose-based, brand name “Chiralpak”).

[2] = Blood concentration of active enantiomer in cats, fed vs fasted (HPLC-MSMS, enantioselective column); format: in vivo; details: 45 mg, fasted Group 2
Method: as §1
To 4 cats, each 45 mg of the racemic compound 5-[5-(3,4,5-trichloro-phenyl)-5-trifluoromethyl-4,5-dihydro-isoxazol-3-yl]-3-methyl-thiophene-2-carboxylic acid [(2,2,2-trifluoro-ethylcarbamoyl)-methyl]-amide were administered in form of an oral solution, and the blood concentration of said aryl isoxazoline compound within the cats was then monitored according to the method as described in Example 1 up to 24 days following the administration.
2 cats (Group 1) received a full daily ration of commercial wet food 15 to 30 minutes before the administration of the aryl isoxazoline compound; The two Group 2 cats received an identical ration of wet food only 5 hours following the uptake of the aryl isoxazoline.

In the case of `Cc1cc(C2=NOC(c3cc(Cl)c(Cl)c(Cl)c3)(C(F)(F)F)C2)sc1C(=O)NCC(=O)NCC(F)(F)F` (racemic) [5-[5-(3,4,5-trichloro-phenyl)-5-trifluoromethyl-4,5-dihydro-isoxazol-3-yl]-3-methyl-thiophene-2-carboxylic acid [(2,2,2-trifluoro-ethylcarbamoyl)-methyl]-amide], the “Blood concentration of active ingredient, comparison of groups” value ([1]; Group 1 (fed 15 to 30 minutes before administration)) was “highest blood concentration of active ingredient”, the “Blood concentration of active ingredient, sufficiency for ectoparasite control” value ([1]; Group 2 (fed 30 minutes after administration)) was “allowed effective ectoparasite control as well” and the “Blood concentration of the active enantiomer, sufficiency for ectoparasite control” value ([1]; Group 3 (fasted, fed 5 hours after)) was “never reached a level being sufficient for an effective ectoparasite control”. The “Level of active ingredient, sufficiency for ectoparasite control” value [2] was “never reached a level of active ingredient sufficient to provide an effective ectoparasite control”.
